Results from publication PMC11859928, “Design, Synthesis, and Antiproliferative Activity of Novel Indole/1,2,4-Triazole Hybrids as Tubulin Polymerization Inhibitors” (Pharmaceuticals, 2025).
Read-outs that look alike come from different tables or passages of the source.

Tests used:
BT-549 = assay: NCI one-dose assay; assay type: cell-based; conditions: Homo sapiens, BT-549, Breast cancer, read-out: Cell growth inhibition %
EKVX = assay: NCI one-dose assay; assay type: cell-based; conditions: Homo sapiens, Non-small cell lung cancer, read-out: Cell growth inhibition %
HCC-2998 = assay: NCI one-dose assay; assay type: cell-based; conditions: Homo sapiens, HCC-2998, Colon cancer, read-out: Cell growth inhibition %
HCT-116 = assay: NCI one-dose assay; assay type: cell-based; conditions: Homo sapiens, HCT-116, Colon cancer, read-out: Cell growth inhibition %
HL-60(TB) = assay: NCI one-dose assay; assay type: cell-based; conditions: Homo sapiens, Leukemia, read-out: Cell growth inhibition %
HT29 = assay: NCI one-dose assay; assay type: cell-based; conditions: Homo sapiens, HT-29, HT29, Colon cancer, read-out: Cell growth inhibition %
LOX IMVI = assay: NCI one-dose assay; assay type: cell-based; conditions: Homo sapiens, Melanoma, read-out: Cell growth inhibition %
MCF7 = assay: NCI one-dose assay; assay type: cell-based; conditions: Homo sapiens, MCF7, Breast cancer, read-out: Cell growth inhibition %
MDA-MB-231/ATCC = assay: NCI one-dose assay; assay type: cell-based; conditions: Homo sapiens, Breast cancer, read-out: Cell growth inhibition %
NCI-H322M = assay: NCI one-dose assay; assay type: cell-based; conditions: Homo sapiens, Non-small cell lung cancer, read-out: Cell growth inhibition %
NCI-H460 = assay: NCI one-dose assay; assay type: cell-based; conditions: Homo sapiens, NCI-H460, Non-small cell lung cancer, read-out: Cell growth inhibition %
NCI-H522 = assay: NCI one-dose assay; assay type: cell-based; conditions: Homo sapiens, NCI-H522, Non-small cell lung cancer, read-out: Cell growth inhibition %
SF-295 = assay: NCI one-dose assay; assay type: cell-based; conditions: Homo sapiens, SF-295, CNS cancer, read-out: Cell growth inhibition %
SK-MEL-28 = assay: NCI one-dose assay; assay type: cell-based; conditions: Homo sapiens, SK-MEL-28, Melanoma, read-out: Cell growth inhibition %
SK-OV-3 = assay: NCI one-dose assay; assay type: cell-based; conditions: Homo sapiens, SK-OV-3, Ovarian cancer, read-out: Cell growth inhibition %
SW-620 = assay: NCI one-dose assay; assay type: cell-based; conditions: Homo sapiens, SW-620, Colon cancer, read-out: Cell growth inhibition %
T-47D = assay: NCI one-dose assay; assay type: cell-based; conditions: Homo sapiens, T47D, Breast cancer, read-out: Cell growth inhibition %
TK-10 = assay: NCI one-dose assay; assay type: cell-based; conditions: Homo sapiens, TK-10, Renal cancer, read-out: Cell growth inhibition %
U251 = assay: NCI one-dose assay; assay type: cell-based; conditions: Homo sapiens, U-251, U251, CNS cancer, read-out: Cell growth inhibition %
786-0 = assay: NCI one-dose assay; assay type: cell-based, human; conditions: Homo sapiens, 786-0, 786-0, Renal cancer, read-out: Cell growth inhibition %
Method: (§1) The National Cancer Institute (NCI), Bethesda, USA, selected the final compounds 6a–j and 7a–j for in vitro anticancer screening. An initial in vitro single-dose anticancer experiment was performed with the entire NCI 60 cell lines derived from nine tumor subpanel cancer cell lines. The results for each compound were illustrated as a mean graph showing the percentage growth of treated cells compared to untreated control cells (see Supplementary Materials).
(§2) The NCI anticancer screening process has been thoroughly detailed. The Drug Evaluation Branch of the National Cancer Institute in Bethesda, […], USA, established the procedure and conducted the anticancer assay on 60 human tumor cell lines from nine neoplastic cancers.

A498 = assay: NCI one-dose assay; assay type: cell-based, human; conditions: Homo sapiens, A498, A498, Renal cancer, read-out: Cell growth inhibition %
Method: as §1, §2

HOP-92 = assay: NCI one-dose assay; assay type: cell-based, human; conditions: Homo sapiens, HOP-92, HOP-92, Non-small cell lung cancer, read-out: Cell growth inhibition %
Method: as §1, §2

UO-31 = assay: NCI one-dose assay; assay type: cell-based, human; conditions: Homo sapiens, UO-31, UO-31, Renal cancer, read-out: Cell growth inhibition %
Method: as §1, §2

RXF 393 = assay: NCI one-dose assay; assay type: cell-based; conditions: Homo sapiens, RXF 393, Renal cancer, read-out: Cell growth inhibition %
NCI 60 cell lines = assay: NCI one-dose assay, full panel; assay type: cell-based, human; conditions: for inhibition at 10 µM: Homo sapiens
Method: as §1, §2

| SMILES | inhibition at 10 µM (BT-549) [%] | inhibition at 10 µM (EKVX) [%] | inhibition at 10 µM (HCC-2998) [%] | inhibition at 10 µM (HCT-116) [%] | inhibition at 10 µM (HL-60(TB)) [%] | inhibition at 10 µM (HT29) [%] | inhibition at 10 µM (MCF7) [%] | inhibition at 10 µM (MDA-MB-231/ATCC) [%] | inhibition at 10 µM (NCI-H322M) [%] | inhibition at 10 µM (NCI-H460) [%] | inhibition at 10 µM (NCI-H522) [%] | inhibition at 10 µM (SF-295) [%] | inhibition at 10 µM (SK-MEL-28) [%] | inhibition at 10 µM (SK-OV-3) [%] | inhibition at 10 µM (SW-620) [%] | inhibition at 10 µM (T-47D) [%] | inhibition at 10 µM (TK-10) [%] | inhibition at 10 µM (U251) [%] | inhibition at 10 µM (786-0) [%] | inhibition at 10 µM (HOP-92) [%] | other results |
| --- | --- | --- | --- | --- | --- | --- | --- | --- | --- | --- | --- | --- | --- | --- | --- | --- | --- | --- | --- | --- | --- |
| O=C(CSc1nnc(-c2c[nH]c3ccccc23)n1-c1ccccc1)c1ccccc1 [Compound 6f, 2-((5-(1H-indol-3-yl)-4-phenyl-4H-1,2,4-triazol-3-yl)thio)-1-phenylethanone] | 37.8 | 31.6 | 16.9 | 62 | 12.8 | 52.1 | 63.8 | 73 | 18.8 | 38.2 | 28.4 | 28 | 0.04 | 14.4 | 23.9 | 16.5 | 28 | 89.2 | 70.4 | 53 | inhibition at 10 µM (LOX IMVI): 70.8%; inhibition at 10 µM (A498): -6.16%; inhibition at 10 µM (UO-31): 44.5% |
| COc1ccc(C(=O)CSc2nnc(-c3c[nH]c4ccccc34)n2-c2ccccc2)cc1 [Compound 6g, 2-((5-(1H-Indol-3-yl)-4-phenyl-4H-1,2,4-triazol-3-yl)thio)-1-(4-methoxyphenyl) Ethenone] | 75.3 | 70.7 | 22.2 | 47.5 | 18.7 | 16.9 | 54.4 | 54.4 | 41.6 | 34.5 | 54.3 | 63.8 | 50.3 | 33.7 | 13.7 | 43.3 | 36.1 | 65.6 | 54.8 | 92.1 | inhibition at 10 µM (LOX IMVI): 56.5%; inhibition at 10 µM (A498): -11.3%; inhibition at 10 µM (UO-31): 67.4% |
| O=C(CSc1nnc(-c2c[nH]c3ccccc23)n1-c1ccccc1)c1ccc(Br)cc1 [Compound 6i, 2-((5-(1H-Indol-3-yl)-4-phenyl-4H-1,2,4-triazol-3-yl)thio)-1-(4-bromophenyl) Ethenone] | 34.8 | 89.2 | 68.3 | 45.7 | 55.5 | 42.6 | 46.6 | 34 | 54.3 | 65.5 | 53.7 | 66.3 | 65.1 | 51.4 | 20.2 | 78 | 35.1 | 38.4 | 17.6 | 71.9 | inhibition at 10 µM (LOX IMVI): 58.2%; inhibition at 10 µM (A498): 64%; inhibition at 10 µM (UO-31): 74% |
| O=C(CSc1nnc(-c2c[nH]c3ccccc23)n1-c1ccccc1)c1ccc(Cl)cc1 [Compound 6j, 2-((5-(1H-indol-3-yl)-4-phenyl-4H-1,2,4-triazol-3-yl)thio)-1-(4-chlorophenyl) Ethenone] | 30.2 | 74.4 | 21.9 | 54.2 | 11.1 | 57.4 | 61.6 | 48.3 | 41.3 | 39.9 | 33 | 45 | 31.7 | 27.9 | 29.7 | 45.4 | 16 | 69.9 | 55.1 | 35 | inhibition at 10 µM (LOX IMVI): 84.1%; inhibition at 10 µM (A498): 42.7%; inhibition at 10 µM (UO-31): 45.2% |
| C=CCn1c(SCC(=NO)c2ccc(OC)cc2)nnc1-c1c[nH]c2ccccc12 [Compound 7b, 2-((4-allyl-5-(1H-indol-3-yl)-4H-1,2,4-triazol-3-yl)thio)-1-(4-methoxyphenyl) Ethanone Oxime] | -3.8 | 7.49 | -8.35 | 23.6 | 16.1 | -5.85 | 11.3 | 13.5 | -1.52 | 5.34 | 8.33 | 16.6 | -3.89 | 1.86 | -2.43 | 26.4 | -27.2 | -5.26 | 0.73 | 8.91 | inhibition at 10 µM (RXF 393): -12.1%; inhibition at 10 µM (UO-31): 19.2%; anticancer activity (in words) (NCI 60 cell lines; across all cell lines, 10 µM): minimal anticancer activity |
| C=CCn1c(SC/C(=N\O)c2ccc(Br)cc2)nnc1-c1c[nH]c2ccccc12 [Compound 7d, (Z)-2-((4-allyl-5-(1H-indol-3-yl)-4H-1,2,4-triazol-3-yl)thio)-1-(4-bromophenyl) Ethanone Oxime] | 20.4 | 25.8 | -3.65 | 47 | 35.7 | 3.35 | 17.9 | 23.6 | 16.3 | 19.7 | 18.5 | 32.5 | 7.82 | 3.28 | 7.31 | 39.8 | 12.9 | 5.15 | 13.4 | 21 | inhibition at 10 µM (RXF 393): 19.3%; inhibition at 10 µM (UO-31): 38.3%; inhibition at 10 µM (NCI 60 cell lines; 60 cell, eleven cell lines, read-out: growth inhibition percentage, range): 34 to 47% |
| C=CCn1c(SC/C(=N\O)c2ccc(Cl)cc2)nnc1-c1c[nH]c2ccccc12 [Compound 7e, (Z)-2-((4-allyl-5-(1H-indol-3-yl)-4H-1,2,4-triazol-3-yl)thio)-1-(4-chlorophenyl) Ethanone Oxime] | 14.4 | 27.1 | 8.7 | 36.1 | 35 | 5.77 | 13.3 | 23.1 | 11.9 | 24.7 | 19.5 | 25 | 0.08 | 3.52 | 9.5 | 46.5 | 1.28 | 1.78 | 11.1 | 26.5 | inhibition at 10 µM (RXF 393): 5.62%; inhibition at 10 µM (UO-31): 39.5%; inhibition at 10 µM (NCI 60 cell lines; HL-60(TB), K-562, MOLT-4, HCT-116, UACC-62, UO-31, T-47D, MDA-MB-468, read-out: growth inhibition percentage, range): 35 to 46.5% |
